In ChEMBL document CHEMBL5528047, “A Potent SOS1 PROTAC Degrader with Synergistic Efficacy in Combination with KRASG12C Inhibitor” (J Med Chem, 2024):
Activity calls are given as the source filed them. The calls are words filed in the database; no cut-off is given here.

Key:
[1] = target: T1, von Hippel-Lindau disease tumor suppressor/Son of sevenless homolog 1 (Homo sapiens, UniProt Q07889+P40337); assay: Protac activity at VHL/SOS1 in human PANC-1 cells assessed as SOS1 degradation at 10 uM by Western blotting analysis relative to control; type: cell-based
Target sequence in this assay (P40337 whole entry, looked up, one chain of several): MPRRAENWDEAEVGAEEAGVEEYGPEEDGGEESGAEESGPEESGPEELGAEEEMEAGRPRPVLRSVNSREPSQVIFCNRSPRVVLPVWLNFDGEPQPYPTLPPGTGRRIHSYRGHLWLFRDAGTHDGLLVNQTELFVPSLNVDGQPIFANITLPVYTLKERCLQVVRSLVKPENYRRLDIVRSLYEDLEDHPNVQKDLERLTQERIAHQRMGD

[2] = target: T1, von Hippel-Lindau disease tumor suppressor/Son of sevenless homolog 1; assay: Protac activity at VHL/SOS1 in human K562 cells assessed as SOS1 degradation at 10 uM by Western blotting analysis relative to control; type: cell-based
Target sequence in this assay (P40337 whole entry, looked up, one chain of several): as above

[3] = target: T1, von Hippel-Lindau disease tumor suppressor/Son of sevenless homolog 1; assay: Protac activity at VHL/SOS1 in human PANC-1 cells assessed as SOS1 degradation incubated for 24 hrs by Western blotting analysis; type: cell-based
[4] = target: T1, von Hippel-Lindau disease tumor suppressor/Son of sevenless homolog 1; assay: Protac activity at VHL/SOS1 in human K562 cells assessed as maximum SOS1 degradation at 0.003 to 10 uM incubated for 24 hrs by Western blotting analysis; type: cell-based; conditions: dose 0.003-10 µM
Target sequence in this assay (P40337 whole entry, looked up, one chain of several): as above

[5] = target: T1, von Hippel-Lindau disease tumor suppressor/Son of sevenless homolog 1; assay: Protac activity at VHL/SOS1 in human PANC-1 cells assessed as maximum SOS1 degradation at 0.003 to 10 uM incubated for 24 hrs by Western blotting analysis; type: cell-based; conditions: dose 0.003-10 µM
Target sequence in this assay (P40337 whole entry, looked up, one chain of several): as above

[6] = target: T1, von Hippel-Lindau disease tumor suppressor/Son of sevenless homolog 1; assay: Protac activity at VHL/SOS1 in human MIA PaCa-2 cells assessed as maximum SOS1 degradation at 0.003 to 10 uM incubated for 24 hrs by Western blotting analysis; type: cell-based; conditions: dose 0.003-10 µM
Target sequence in this assay (P40337 whole entry, looked up, one chain of several): as above

[7] = target: T1, von Hippel-Lindau disease tumor suppressor/Son of sevenless homolog 1; assay: Protac activity at VHL/SOS1 in human MIA PaCa-2 cells assessed as SOS1 degradation at 1 uM preincubated with MG132 for 2 hrs followed by compound addition and measured after 3 hrs by Western blotting analysis; type: cell-based
Target sequence in this assay (P40337 whole entry, looked up, one chain of several): as above

[8] = target: T1, von Hippel-Lindau disease tumor suppressor/Son of sevenless homolog 1; assay: Protac activity at VHL/SOS1 in human K562 cells assessed as SOS1 degradation at 1 uM preincubated with MG132 for 2 hrs followed by compound addition and measured after 2 hrs by Western blotting analysis; type: cell-based
[9] = target: T1, von Hippel-Lindau disease tumor suppressor/Son of sevenless homolog 1; assay: Protac activity at VHL/SOS1 in human K562 cells assessed as SOS1 degradation at 1 uM preincubated with MLN4924 for 2 hrs followed by compound addition and measured after 2 hrs by Western blotting analysis; type: cell-based
[10] = target: T1, von Hippel-Lindau disease tumor suppressor/Son of sevenless homolog 1; assay: Protac activity at VHL/SOS1 in human K562 cells assessed as SOS1 degradation at 1 uM preincubated with BI3406 for 2 hrs followed by compound addition and measured after 2 hrs by Western blotting analysis; type: cell-based
[11] = target: T2, Son of sevenless homolog 1 (Homo sapiens) (UniProt Q07889); assay: Induction of SOS1 degradation in human NCI-H358 cells at 1 uM measured upto 72 hrs by Western blotting analysis; type: cell-based
T2 sequence (whole entry): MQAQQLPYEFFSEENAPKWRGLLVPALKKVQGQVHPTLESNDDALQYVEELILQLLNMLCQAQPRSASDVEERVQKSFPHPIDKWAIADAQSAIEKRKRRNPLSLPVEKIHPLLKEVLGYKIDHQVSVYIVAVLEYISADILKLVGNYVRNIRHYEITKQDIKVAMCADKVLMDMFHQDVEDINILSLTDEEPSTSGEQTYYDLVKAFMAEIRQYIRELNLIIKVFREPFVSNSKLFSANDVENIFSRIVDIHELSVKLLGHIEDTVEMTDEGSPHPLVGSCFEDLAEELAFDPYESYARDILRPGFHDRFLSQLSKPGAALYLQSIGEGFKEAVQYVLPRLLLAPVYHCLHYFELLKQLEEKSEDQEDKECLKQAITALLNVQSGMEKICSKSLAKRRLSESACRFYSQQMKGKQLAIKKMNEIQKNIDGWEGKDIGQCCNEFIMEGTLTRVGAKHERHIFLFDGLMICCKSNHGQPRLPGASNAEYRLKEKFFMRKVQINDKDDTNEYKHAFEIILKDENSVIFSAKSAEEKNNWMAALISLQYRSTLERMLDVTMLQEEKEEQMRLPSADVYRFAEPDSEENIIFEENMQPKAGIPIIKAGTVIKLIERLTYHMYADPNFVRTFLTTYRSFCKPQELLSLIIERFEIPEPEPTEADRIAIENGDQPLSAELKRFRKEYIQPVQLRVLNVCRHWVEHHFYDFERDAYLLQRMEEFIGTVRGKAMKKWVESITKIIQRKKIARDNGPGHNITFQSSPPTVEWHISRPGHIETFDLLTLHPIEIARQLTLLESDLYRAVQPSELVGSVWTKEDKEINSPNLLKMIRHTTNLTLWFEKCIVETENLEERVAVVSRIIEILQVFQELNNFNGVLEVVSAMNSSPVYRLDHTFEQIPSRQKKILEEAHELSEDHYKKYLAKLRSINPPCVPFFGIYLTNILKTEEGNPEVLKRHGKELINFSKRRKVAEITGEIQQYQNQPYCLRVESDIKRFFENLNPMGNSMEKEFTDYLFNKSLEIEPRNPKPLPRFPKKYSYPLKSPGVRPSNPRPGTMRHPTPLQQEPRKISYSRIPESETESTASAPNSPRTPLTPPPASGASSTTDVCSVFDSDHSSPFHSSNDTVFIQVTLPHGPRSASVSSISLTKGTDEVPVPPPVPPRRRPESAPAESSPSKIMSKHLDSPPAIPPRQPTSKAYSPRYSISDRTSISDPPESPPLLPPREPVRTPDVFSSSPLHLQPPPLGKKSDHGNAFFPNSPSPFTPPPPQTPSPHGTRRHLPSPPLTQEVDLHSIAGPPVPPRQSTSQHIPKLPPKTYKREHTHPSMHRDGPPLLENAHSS

K562 [12] = assay: Downregulation of phosphorylated-MEK level in human K562 cells at 0.3 to 3 uM incubated for 24 hrs by Western blotting analysis; type: functional, cell-based; conditions: dose 0.3-3 µM
K562 [13] = assay: Downregulation of phosphorylated-ERK level in human K562 cells at 0.3 to 3 uM incubated for 24 hrs by Western blotting analysis; type: functional, cell-based; conditions: dose 0.3-3 µM
MIA PaCa-2 [14] = assay: Antiproliferative activity against human MIA PaCa-2 cells incubated for 72 hrs by CCK8 assay; type: functional, cell-based; conditions: MIA PaCa-2, 72 h
K562 [15] = assay: Antitumor activity against human K562 cells xenografted in NOD-SCID mouse assessed as tumor growth inhibition at 5 mg/kg, ip administered as 5 days on and 2 days off schedule for 21 days; type: functional; conditions: K562, 120 h, time 5 day, read-out: TGI
Mus musculus = assay: In vivo induction of SOS1 degradation in human K562 cells xenografted in NOD-SCID mouse assessed as reduction in SOS1 level at 25 mg/kg, ip measured after 24 hrs by immunoblotting analysis; type: functional, organism-based
NCI-H358 = assay: Inhibition of ERK phosphorylation in human NCI-H358 cells at 1 uM measured after 24 to 72 hrs in presence of AMG510 by Western blotting analysis; type: cell-based; conditions: time 24-72 hrs
SW837 = assay: Inhibition of ERK phosphorylation in human SW837 cells at 1 uM measured after 24 to 72 hrs in presence of AMG510 by Western blotting analysis; type: cell-based; conditions: time 24-72 hrs
MIA PaCa-2 [16] = assay: Antiproliferative activity against human MIA PaCa-2 cells incubated for 6 days by CCK8 assay; type: functional, cell-based; conditions: MIA PaCa-2, 144 h
MIA PaCa-2 [17] = assay: Induction of apoptosis in human MIA PaCa-2 cells assessed as increase in cleaved caspase-3 level incubated for 24 hrs in presence of 4-((S)-4-acryloyl-2-methylpiperazin-1-yl)-6-fluoro-7-(2-fluoro-6-hydroxyphenyl)-1-(2-isopropyl-4-methylpyridin-3-yl)pyrido[2,3-d]pyrimidin-2(1H)-one by Western blotting assay; type: functional, cell-based

In the case of COc1cc2nc(C)nc(N[C@H](C)c3cc(N)cc(C(F)(F)F)c3)c2cc1OCCCCC(=O)N[C@H](C(=O)N1C[C@H](O)C[C@H]1C(=O)NCc1ccc(-c2scnc2C)cc1)C(C)(C)C, the Activity [1] is reported as 93.9%, the Activity [2] is reported as 93.3% and the Activity [3] is reported as “Dose-Dependent Effect”. The DC50 [3] was 43 nM, the Emax [4] was over 90% and the Emax [5] was over 90%. For the same compound, the Emax [6] was over 90%, the Activity [7] was “inactive” and the Activity [8] was “inactive”. The Activity [9] was “inactive”, the Activity [10] was “inactive” and the Activity [11] was “Active”. For the same compound, the Activity (K562 [12]) was “Active”, the Activity (K562 [13]) was “Active” and the IC50 (MIA PaCa-2 [14]) was 98 nM. For the same compound, the inhibition in vivo at 5 mg/kg (K562 [15]) was 56.3%, the Activity (Mus musculus) was “Active” and the inhibition (NCI-H358) was “Active”. For the same compound, the inhibition (SW837) was “Active”, the IC50 (MIA PaCa-2 [16]) was 3480 nM and the Activity (MIA PaCa-2 [17]) was “Active”.
